# Source: patent US6852696B2, “Inhibitors of glycosaminoglycans” (The University of Texas System, priority 1999, dated 2005)
# Entries after “also recorded” stand apart in the source; their conditions may differ.
# Legend:
# Langerhans cells (LC) = test: DNFB-induced LC maturation (CD86 expression by IA+ epidermal cells); type: in vivo, BALB/c mice; conditions: two local injections, 40 μg/injection/ear, 24 and 3 hours before DNFB
# From the text: FIGS. 6A-C. Impact of Pep-1 on hapten-induced LC maturation. (FIG. 6A) Epidermal cells isolated from BALB/c mice at 17 hr after topical application of 0.5% DNFB or vehicle alone were double-stained with FITC-conjugated anti-IA mAb and PE-conjugated anti-CD86 mAb. Data shown are representative two-color FACS profiles, documenting marked elevated surface expression of CD86 by IA^+ epidermal cells (i.e., LC) after DNFB application. (FIG. 6B) BALB/c mice received subcutaneous two local injections of Pep-1 or RP (40 μg/injection/ear) 24 and 3 hours before topical application of 0.5% DNFB and epidermal cells were isolated 17 hr later to examine the expression levels of CD86 on LC. […] (FIG. 6C) Graphical representation of the % CD86^+ cells/IA^+ LC from three independent experiments described in (FIG. 6B) with circles, triangles, and squares showing corresponding pairs in each experiment. Bars represent the mean values (n=3) and the asterisk indicates statistically significant difference between the Pep-1 and the RP panels (*p<0.03 by the Mann-Whitney U test).
# A critical question concerns the physiological significance of the above finding. Topical application of haptens is known to trigger not only LC migration from the epidermis, but also their maturation. […]
# XS52 DC = test: Cytokine secretion by XS52 DC stimulated with HA fragments (ELISA); type: cell-based; conditions: 500 μg/ml; HA fragments 50 μg/ml
# Experimental: FIGS. 5A-C. Impact of Pep-1 on HA degradation products. (FIG. 5A) 96 well plates were coated with biotinylated-HA (0.1 μg/ml) and pretreated with 500 μg/ml of Pep-1 (open circles), RP (closed circles), or PBS alone (triangles) for 3 hours. These plates were then incubated for 30 min in the presence of HAase (from bovine testis). After extensive wash, the amounts of remaining biotinylated HA on the plates were determined by addition of streptavidin-alkaline phosphatase followed by p-nitrophenyl phosphate substrate. The % HA digestion was calculated from the optical densities. The data shown are the means+/−s.e.m.from triplicate samples analyzed with a hyperbolic model. (FIG. 5B) The impact of Pep-1 on HA digestion and on cell adhesion was examined in parallel using the HA-coated plates prepared simultaneously. Pep-1, RP, or PBS alone was added to the HA-coated plates as above and their effects on HAase-mediated HA degradation and on the adhesion of ^35S-labeled BW5147 thymoma cells were compared. The data shown are the means+/−s.e.m.(n=3) of 50% inhibition doses of HAase (left) and % cell adhesion (right). […] (FIG. 5C) Low molecular weight HA fragments were prepared by sonication of HMW HA followed by overnight digestion with HAase at 37° C. […] Results are expressed as the means+/−s.e.m.from triplicate samples. […]
# [1] = system: HAase (from bovine testis); test: HAase-mediated degradation of immobilized biotinylated HA; type: biochemical; conditions: 500 μg/ml pretreatment
# Experimental: FIGS. 5A-C. Impact of Pep-1 on HA degradation products. (FIG. 5A) 96 well plates were coated with biotinylated-HA (0.1 μg/ml) and pretreated with 500 μg/ml of Pep-1 (open circles), RP (closed circles), or PBS alone (triangles) for 3 hours. These plates were then incubated for 30 min in the presence of HAase (from bovine testis). After extensive wash, the amounts of remaining biotinylated HA on the plates were determined by addition of streptavidin-alkaline phosphatase followed by p-nitrophenyl phosphate substrate. The % HA digestion was calculated from the optical densities. The data shown are the means+/−s.e.m.from triplicate samples analyzed with a hyperbolic model. (FIG. 5B) The impact of Pep-1 on HA digestion and on cell adhesion was examined in parallel using the HA-coated plates prepared simultaneously. Pep-1, RP, or PBS alone was added to the HA-coated plates as above and their effects on HAase-mediated HA degradation and on the adhesion of ^35S-labeled BW5147 thymoma cells were compared. […] Results are expressed as the means+/−s.e.m.from triplicate samples.
# To test the impact of Pep-1 on HA degradation, the present inventors developed a 96 well-based assay in which biotinylated HA was immobilized onto the plates and treated with HAase. The amounts of HA that remained attached to the wells was then determined by addition of streptavidin-conjugated alkaline phosphatase (FIG. 5A).
sequence,measurement,setting,value
GAHWQFNALTVR [Pep-1],prevention of DNFB-induced LC maturation (CD86 up-regulation),Langerhans cells (LC),prevented this DNFB-induced LC maturation; also recorded: is prevented
same,inhibition of IL-6 secretion triggered by HA fragments,XS52 DC,inhibited the secretion of both cytokines almost completely
same,inhibition of TNFα secretion triggered by HA fragments,XS52 DC,inhibited the secretion of both cytokines almost completely
same,effect on HAase-mediated HA degradation,[1],failed to affect the degradation of HA substrates
